Reference: article PMC10610198, “Inhibitory Activity of Natural cis-Khellactone on Soluble Epoxide Hydrolase and Proinflammatory Cytokine Production in Lipopolysaccharides-Stimulated RAW264.7 Cells” (Plants, 2023)

Target: T1, soluble epoxide hydrolase (sEH) (Homo sapiens, UniProt P34913)
T1 construct: gene EPHX2
T1 sequence (P34913 1-555): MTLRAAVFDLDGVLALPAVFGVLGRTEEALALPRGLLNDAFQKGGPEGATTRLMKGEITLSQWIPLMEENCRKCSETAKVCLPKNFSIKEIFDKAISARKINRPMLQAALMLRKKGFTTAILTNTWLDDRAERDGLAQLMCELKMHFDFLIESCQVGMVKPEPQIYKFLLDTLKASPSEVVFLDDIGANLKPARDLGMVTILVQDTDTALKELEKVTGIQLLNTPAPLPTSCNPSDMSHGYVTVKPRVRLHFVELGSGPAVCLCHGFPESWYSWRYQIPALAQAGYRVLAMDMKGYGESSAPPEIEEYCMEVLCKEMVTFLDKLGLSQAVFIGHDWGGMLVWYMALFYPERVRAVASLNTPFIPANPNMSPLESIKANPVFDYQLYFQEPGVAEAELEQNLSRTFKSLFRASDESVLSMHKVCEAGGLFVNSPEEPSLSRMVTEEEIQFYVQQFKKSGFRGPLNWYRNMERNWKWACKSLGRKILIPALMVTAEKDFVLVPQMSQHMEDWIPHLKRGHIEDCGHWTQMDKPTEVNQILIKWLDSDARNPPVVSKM
Experiment: fluorescent PHOME hydrolysis assay with recombinant sEH; Lineweaver–Burk and Dixon plots
Type: biochemical

- Ki: 3.5 µM
SMILES: CC1(C)Oc2ccc3ccc(=O)oc3c2[C@H](O)[C@@H]1O [compound 1, (−)cis-Khellactone]
